In patent publication US12527835B2, “Brevican-binding peptides for brain tumor imaging” (The Brigham and Women's Hospital, Inc., priority 2018, dated 2026):
Where a SMILES comes first, the peptide text is derived from it. Where no end group is shown, it is not given here. [ ]: non-standard residue; d: D form. The star is where a group is joined. X1 = O=C(O)c1cc(NC(=S)*)ccc1-c1c2ccc(=O)cc-2oc2cc(O)ccc12; Ahx = NCCCCCC(=O)O

Assays:
[1] = target: T1, recombinant BΔg protein (deglycosylated brevican) (Homo sapiens, UniProt Q96GW7); assay: Octet steady state binding affinity to recombinant BΔg; settings: KD of labeled versus unlabeled peptide
T1 construct: purchased R&D Systems 4009-BC-050
T1 sequence (Q96GW7 23-911): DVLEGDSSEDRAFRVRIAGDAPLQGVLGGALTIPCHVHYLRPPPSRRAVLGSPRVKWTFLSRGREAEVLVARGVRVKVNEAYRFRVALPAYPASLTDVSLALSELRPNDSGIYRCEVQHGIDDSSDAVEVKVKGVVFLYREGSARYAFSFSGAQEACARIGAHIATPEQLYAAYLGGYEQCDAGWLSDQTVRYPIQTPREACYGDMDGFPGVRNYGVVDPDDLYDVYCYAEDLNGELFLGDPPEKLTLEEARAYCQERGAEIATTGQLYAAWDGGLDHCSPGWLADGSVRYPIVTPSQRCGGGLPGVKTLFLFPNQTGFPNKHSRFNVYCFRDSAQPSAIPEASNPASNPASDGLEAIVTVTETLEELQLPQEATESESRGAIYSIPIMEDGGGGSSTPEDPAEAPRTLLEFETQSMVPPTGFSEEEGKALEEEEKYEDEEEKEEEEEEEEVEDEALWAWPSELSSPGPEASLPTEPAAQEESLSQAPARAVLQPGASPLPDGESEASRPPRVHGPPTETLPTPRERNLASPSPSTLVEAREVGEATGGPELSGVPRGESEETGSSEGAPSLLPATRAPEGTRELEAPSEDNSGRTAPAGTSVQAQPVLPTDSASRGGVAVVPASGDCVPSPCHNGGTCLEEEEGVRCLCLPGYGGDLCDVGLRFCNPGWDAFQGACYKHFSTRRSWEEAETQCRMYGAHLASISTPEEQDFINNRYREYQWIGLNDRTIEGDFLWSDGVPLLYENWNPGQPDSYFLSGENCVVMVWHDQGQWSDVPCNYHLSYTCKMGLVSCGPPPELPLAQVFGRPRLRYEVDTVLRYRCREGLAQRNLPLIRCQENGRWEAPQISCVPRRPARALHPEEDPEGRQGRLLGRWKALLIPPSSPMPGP
Method: A ForteBio OctetRed384 instrument was used to study the binding kinetics of each peptide to recombinant human brevican (re-suspended in PBS and 0.1 mM EDTA, pH 6.8). The brevican protein was deglycosylated prior to experimental use in water+0.05% tween, PI, sialidase, 0-glycosidase, N-glycosidase in sodium acetate [200 mM], NaCl [250 mM], Tris-HCl [200 mM], pH 7.5.) in the presence of protease inhibitor overnight at 4° C. (this entire composition will be referred to as ‘de-glycosylation buffer’). […] The final volume for all the solutions was 80 μl/well. Assays were performed at 30° C. in solid black 384-well plates (Geiger Bio-One). Prior to beginning, Ni-NTA biosensors were soaked for 10 min in working buffer. Before loading the protein onto each biosensor, a baseline was established in working buffer for 60 s. Deglycosylated brevican (50 μg/ml BΔg; His-tagged) was loaded on the surface of each biosensors for 180 s. […] Reference biosensors were also included in the plate as internal controls, where biosensors were exposed to the ‘de-glycosylation buffer’ lacking brevican protein during the loading step. A 60 s biosensor washing step was applied. Then, biosensors were exposed to the analyte (peptide) in working buffer (ranging between 0-10 μM BTP) for 300 s during the ‘association’ step. Finally, the biosensors were exposed to working buffer (without peptide) during the ‘dissociation’ step for 600 s. Binding affinity of each peptide was assessed through steady state analysis, where the response unit was plotted over peptide concentration. All data was plotted and curves were fitted using the non-linear ‘one-site specific binding’ fit, and the dissociation constant (KD) value was calculated using the GraphPad Prism software.
Binding kinetics analyses were performed using the Octet RED platform (Forte Bio) to measure the binding affinity of BTP-7, 8 and 9 to purified recombinant BΔg protein.

[2] = target: T2, glycosylated isoform of normal brevican (Bcan) (Homo sapiens, UniProt Q96GW7); assay: Octet steady state binding to fully glycosylated brevican (control); settings: Octet steady state analysis
T2 construct: purchased R&D Systems 4009-BC-050
T2 sequence (Q96GW7 23-911): T1 sequence (Q96GW7 23-911)

[3] = In vivo analysis of BBB permeability in non-tumor bearing mice; set-up: species or system mouse; settings: i.v., 100 μL of 100 μM, 4 hrs
Method: To measure BBB penetration, naïve nude mice were injected intravenously via the tail vein with either Cy5.5-labeled BTP-7 or a scramble (Cy5.5-Scr-7) peptide (100 μL of 100 μM peptide solution). 4 hrs later, mice were injected with 100 μL of 50 mg/mL TRITC-dextran (155 kDa) via the tail vein. Mice were euthanized after 30 mins, and their brains excised, frozen and cryo-sectioned into 16 μm slices. Tissue sections from the frontal lobe were imaged by confocal microscopy using a 20× objective. Areas with high TRITC (red in original) signal indicate regions of high perfusion (i.e. blood vessels). Cy5.5 (peptide) intensity was measured in areas outside of visible TRITC signal to ensure that only peptide intensity in the brain parenchyma (peptide that has successfully extravasated from the vessels and accumulated in the brain tissues) was quantified.

[4] = system: intracranial GBM-6 tumor; assay: Intracranial GBM-6 tumor uptake analysis in nude mice; format: in vivo, mouse; settings: i.v. tail vein, 100 μL of 500 μM
Method: For intracranial tumor implantation, animals were injected with 100,000 GBM-6 cells in the right frontal lobe of the mouse brain. Briefly, nude mice (6-8 weeks) were anaesthetized by i.p. injection with ketamine/xylazine/acepromazine mixed in 0.9% NaCl saline solution. Then, the mice heads were mounted onto a stereotactic frame, and sterilized by swabbing with iodine solution. An 8-10 mm sagittal incision was made with a scalpel, and the bregma of the skull was identified. A Hamilton syringe containing GBM-6 cells (in PBS; 3 μL volume) was inserted into the coronal suture of the skull at the following coordinates from the bregma: 2 mm right and 0.5 mm forward. The tip of the needle was lowered/implanted into the brain (3.5 mm distance). GBM-6 cells were injected slowly (0.1 μL per 10 seconds). After that, the needle was retracted, and the skin around the incision was sutured back together. Mice were allowed to recover after surgery (meloxicam were given as analgesia post-surgery). […] After 8 hrs, mice were sacrificed and their brains excised, cryosectioned, stained with Hoechst dye and imaged by fluorescence microscopy. […] The mean Cy5.5 fluorescence intensity of the tumor was performed on ImageJ and compared with the mean fluorescence intensity on the non-tumor area on the contralateral (left) side of the brain.

[5] = healthy mice, 4 hours post-intravenous administration, IVIS
Method: The lyophilized BTP-7-Cy5.5 powders were dissolved to a final concentration of 10 mM in DMSO by mass. The peptide was then diluted to a concentration of 100 μM in a solution of 50:50 polyethylene glycol (PEG)-300:0.9% sodium chloride (v/v) irrigation solution. A 100 μL dose of each peptide solution was administered intravenously via the tail vein into healthy 8-week old female nude mice. After 4 hours, 100 μL of 50 mg/mL tetramethylrhodamine isothiocyanate-labeled dextran (155 kDa) in 0.9% sodium chloride was injected via the tail vein. Mice were sacrificed 30 min later by cervical dislocation. The brain, heart, lungs, kidneys, spleen, and liver were excised from each mouse, frozen on dry ice and imaged using an In Vivo Imaging System (Perkin Elmer) at an excitation of 640 nm. Using Living Image software, regions of interest were drawn around each organ and the total radiant efficiency of Cy5.5 from each organ was quantified.

[6] = system: HEK-Bcan cells; assay: Flow cytometry cell uptake, HEK-Bcan versus regular HEK cells; format: cell-based, human; settings: Cy5.5-conjugated peptides, 5 μM
Method: (§1) Cells were washed once with PBS and then, treated with 1 mL of 2.5 mM EDTA to dissociate the cells. The EDTA was removed by centrifugation, and PBS supplemented with 10% FBS was added to create a single-cell suspension. All peptide stocks were dissolved in DMSO, and stored at −20° C. in the dark. Cells were incubated with each peptide (at the desired final concentration, between 1-10 μM) for 3 hrs at 37° C. in the dark under constant rotation. After incubation, cells were washed 3× with PBS with 10% FBS (by centrifugation at 7000 rpm for 3 mins each). Then, cells were resuspended in 3.7% formaldehyde for fixation, and finally washed once with PBS. Cells were evaluated for peptide uptake (mean fluorescence intensity) by flow cytometry (10,000-20,000 events).

[7] = system: GBM-6 cells; assay: Flow cytometry cell uptake in GBM-6 cells; format: cell-based, human
Method: as §1

[8] = system: BT188 glioma stem cells; assay: Peptide uptake in BT188 (BΔg-high) versus BT145 (BΔg-low) glioma stem cells, fluorescence imaging; format: cell-based, human; settings: fluorescein-labeled peptides, 5 μM
Excerpt: FIGS. 3A-I. Peptide characterization for BΔg specificity in glioma stem cells. (a) Table summary listing the properties of 7 peptides (composed of 8 D-amino acid residues, SEQ ID NOs:3-9, in order of appearance) that were isolated from the OBOC library screen. MW=molecular weight; KD=Kyte-Doolittle scale for amino acid hydropathy (positive scores indicate […]) (Kyte and Doolittle, J. Mol. Biol. 157, 105-132 (1982)). (b) Chemical structure showing the linkage between the peptide and FITC. (c) Western blot analysis showing the level of BΔg and Bcan in human embryo kidney (HEK) cells, and Bcan-overexpressing HEK cells (HEK-Bcan). […] Each group was normalized to a no-blocking (vehicle) control. Statistics were performed using multiple t-tests, and significance was measured in comparison to each vehicle control (p<0.0001). (e) Uptake of fluorescein-labeled BTP-2, 7, 8, 9, and 10 (at 5 μM conc.) in BT188 (BΔg-high) or BT145 (BΔg-low) glioma stem cells (GSCs). Western blot analysis on the top right confirms the BΔg expression level. […] Statistics were performed using the two-way ANOVA and Tukey's Multiple Comparison test. (f) Chemical structure showing the linkage between the peptide and Cy5.5 dye. (g) Western blot analysis showing the expression of BΔg in GBM-6 cells, with negligible BΔg level in astrocytes or neural progenitor cells (NPC). (h) Graph showing the cell uptake ranking of the top 3 peptide candidates, BTP-7, 8 and 9 in GBM-6 cells as determined by flow cytometry analysis with s.d. error bars (5 μM conc.; nevents=20,000 cells; nexperiment=5). Each group is normalized to the control scramble peptide (Scr-8). Statistics were performed using the one-way ANOVA and Tukey's Multiple Comparison test (significance were measured in comparison to the Scr-8 control). (i) Bar graph showing the uptake of BTP-7, 8 and 9 in GBM-6 cells and NPC with 95% confidence interval error bars (1 μM conc.; nevents=20,000 cells). Statistics were performed using the two-way ANOVA and Sidak's Multiple Comparison test.

[9] = system: HEK-Bcan cells; assay: Flow cytometry blocking study with 50× molar excess of unlabeled peptide; format: cell-based, human; settings: fluorescein-conjugated peptide 1 μM
Method: as §1
For blocking studies, cells were dissociated as described above and resuspended in cold PBS with 10% FBS. Cells were then incubated with a 50× molar excess of unlabeled peptide for 10 mins on ice, before adding the corresponding FITC-labeled peptide at a final concentration of 1 μM and incubated for 1.5 hrs on ice. Cells were then washed with cold PBS with 10% FBS, fixed and analyzed by flow cytometry.

[10] = Solubility in aqueous solutions

CC(C)[C@@H](NC(=O)[C@@H](Cc1c[nH]cn1)NC(=O)CNC(=O)[C@@H](Cc1c[nH]c2ccccc12)NC(=O)[C@@H](CCCCN)NC(=O)[C@H](N)[C@H](C)O)C(=O)N[C@H](CC(N)=O)C(=O)N[C@H](CCCCN)C(=O)NCCCCCC(=O)N[C@@H](CCCCNC(=S)Nc1ccc(-c2c3ccc(=O)cc-3oc3cc(O)ccc23)c(C(=O)O)c1)C(N)=O [BTP-7 conjugated to a fluorescein dye] (H-[dT][dK][dW]G[dH][dV][dN][dK][Ahx]K(X1)-NH2)
binding affinity relative to the unlabeled BTP-7 (times less) [1]: more than 10 times
binding to the glycosylated isoform of normal brevican [2]: does not bind

CC(C)[C@@H](NC(=O)[C@@H](Cc1c[nH]cn1)NC(=O)CNC(=O)[C@@H](Cc1c[nH]c2ccccc12)NC(=O)[C@@H](CCCCN)NC(=O)[C@H](N)[C@H](C)O)C(=O)N[C@H](CC(N)=O)C(=O)N[C@H](CCCCN)C(=O)NCCCCCC(=O)N[C@@H](Cc1cn(CCCNC(=O)CCCCC[N+]2=C(/C=C/C=C/C=C3/N(C)c4ccc5ccccc5c4C3(C)C)C(C)(C)c3c2ccc2ccccc32)nn1)C(N)=O [BTP-7-Cy5.5]
accumulation in the brain parenchyma outside of regions of high perfusion ([3]; healthy non-tumor bearing mice, confocal microscopy): accumulated within the brain parenchyma
level of extravasation across the BBB compared with Scr-7 ([3]; mean Cy5.5 intensity in parenchyma): higher that of Scr-7
tumor uptake compared to the control Cy5.5 dye (without peptide) ([4]; brain cryo-sections, mean Cy5.5 intensity in tumor): more than 10 times
fluorescence intensity of tumor compared to the contralateral area ([4]; tumor-to-non-tumor ratio): 4 times
fluorescence intensity in liver and kidneys [5]: highest fluorescence intensity
uptake in brain and heart compared to other organs [5]: relatively low uptake
uptake in HEK-Bcan cells compared with regular HEK cells [6]: significantly higher
uptake in GBM-6 GSCs compared with astrocytes ([7]; Cy5.5-conjugated peptides): significantly higher
uptake in GBM-6 cells at 4° C. compared to 37° C. ([7]; Cy5.5-conjugated peptides, 5 μM, inhibition of endocytosis): significantly reduced
cell uptake ranking in GBM-6 cells ([7]; Cy5.5-labeled, 5 μM, normalized to Scr-8): highest uptake

BTP-2: BΔg-targeting peptide of 8 D-amino acid residues from OBOC screen; sequence only in FIG. 3A ([dW][dR][dK][dA][dF][dT]G[dY]; not fully specified)
uptake in BT188 GSCs compared with BT145 GSCs [8]: greater uptake
uptake in HEK-Bcan cells in the presence of the blocking peptide [9]: reduced uptake
solubility in aqueous solutions compared to the other peptides [10]: more insoluble in aqueous solutions
